Experiment [1] concerns the target T1, MCR-1 (Homo sapiens, UniProt Q01726).
T1 construct: expressed in transfected cells; host or cells: HEK 293
In words: Melanocortin receptor binding assay, competition with 125I-HP 467, HEK 293 cells expressing hMCR-1. The note with it: inhibition of binding of 125I-HP 467, HEK 293 cells expressing MCR-1, TRG 2414 library; for IC50: read-out: MC-1 IC50. An outline of the steps: (§1)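 Intact-cell competition binding, 2.5 hr at 37 °C, in PBS/10% calf serum/1 mM CaCl2; hMCR-4 cells at 4×10^3 per tube, hMCR-1 cells at 2×10^4 per tube. Filtration on BSA/CaCl2-soaked GF/B, cold 50 mM Tris pH 7.4 washes, scintillation count.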

Experiment [2] concerns the target T2, MCR-4 (Homo sapiens, UniProt P32245).
T2 construct: expressed in transfected cells; host or cells: HEK 293
The experiment can be described thus: Melanocortin receptor binding assay, competition with 125I-HP 467, HEK 293 cells expressing hMCR-4. As to conditions: inhibition of binding of 125I-HP 467, HEK 293 cells expressing MCR-4, TRG 2414 library; for IC50: read-out: MC-4 IC50. The essentials: as §1

T2 sequence (P32245 whole entry): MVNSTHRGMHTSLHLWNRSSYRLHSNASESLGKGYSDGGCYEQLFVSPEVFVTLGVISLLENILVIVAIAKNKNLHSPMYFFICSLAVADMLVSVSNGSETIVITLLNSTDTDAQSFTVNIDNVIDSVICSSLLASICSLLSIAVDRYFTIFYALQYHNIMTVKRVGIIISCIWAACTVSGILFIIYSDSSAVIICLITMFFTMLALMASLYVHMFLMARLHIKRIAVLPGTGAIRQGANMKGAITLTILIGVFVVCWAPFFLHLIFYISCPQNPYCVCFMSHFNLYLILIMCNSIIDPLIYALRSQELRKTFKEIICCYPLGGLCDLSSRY
T1 sequence (Q01726 whole entry): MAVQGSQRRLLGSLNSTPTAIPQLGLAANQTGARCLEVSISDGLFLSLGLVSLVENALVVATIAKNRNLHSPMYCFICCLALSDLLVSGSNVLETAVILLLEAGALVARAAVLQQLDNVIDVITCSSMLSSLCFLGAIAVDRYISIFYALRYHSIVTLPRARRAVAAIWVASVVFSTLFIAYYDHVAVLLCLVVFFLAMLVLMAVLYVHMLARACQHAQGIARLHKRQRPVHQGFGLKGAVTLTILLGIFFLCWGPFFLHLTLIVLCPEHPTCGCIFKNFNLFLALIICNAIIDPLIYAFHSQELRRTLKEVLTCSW

For `COc1ccc(CCNCC2c3ccccc3CN(CCCCC(CN)NCc3ccccc3)C2c2cccc(Oc3ccccc3)c2)cc1` (stereo not drawn) [TRG 2414-107], the IC50 (in general, the concentration at which inhibition is half-maximal) in experiment [1] worked out at 6.55 µM; in experiment [2], 8.21 µM.
With `COc1ccc(CCNCC2c3ccccc3CN(CCCCC(CN)NCC(C)c3ccc(CC(C)C)cc3)C2c2cccc(Oc3ccccc3)c2)cc1` (stereo not drawn) [TRG 2414-108], the “MC-1 IC50” value in experiment [1] is “no fit”. In addition, in experiment [2], the IC50 was 49.2 µM.
Regarding `NCC(N)CCCCN1Cc2ccccc2C(CNCc2ccccc2)C1c1cccc(Oc2ccccc2)c1` (stereo not drawn) [TRG 2414-109], the IC50 in experiment [1] is 3.06 µM; in experiment [2] it was 0.91 µM.
`NCC(CCCCN1Cc2ccccc2C(CNCc2ccccc2)C1c1cccc(Oc2ccccc2)c1)NCCc1ccccc1` (stereo not drawn) [TRG 2414-110]: the IC50 in experiment [1] turned out to be 11.1 µM; in experiment [2], 10 µM.
Turning to `NCC(CCCCN1Cc2ccccc2C(CNCc2ccccc2)C1c1cccc(Oc2ccccc2)c1)NCc1ccccc1` (stereo not drawn) [TRG 2414-111], the figures for the IC50 in experiment [1] and in experiment [2] were 7.74 µM and 13.1 µM, respectively.
As for `CC(C)Cc1ccc(C(C)CNC(CN)CCCCN2Cc3ccccc3C(CNCc3ccccc3)C2c2cccc(Oc3ccccc3)c2)cc1` (stereo not drawn) [TRG 2414-112], the “MC-1 IC50” value in experiment [1] is “no fit”. Moreover, the IC50 in experiment [2] is 51.3 µM.
`NCC(N)CCCCN1Cc2ccccc2C(CNC2CCCCCC2)C1c1cccc(Oc2ccccc2)c1` (stereo not drawn) [TRG 2414-113]: the IC50 in experiment [1] turned out to be 2.96 µM; in experiment [2] it was 1.78 µM.
Taken in the same sequence, the figures for `NCC(CCCCN1Cc2ccccc2C(CNC2CCCCCC2)C1c1cccc(Oc2ccccc2)c1)NCCc1ccccc1` (stereo not drawn) [TRG 2414-114] were 8.96 µM and 4.83 µM.
For `NCC(CCCCN1Cc2ccccc2C(CNC2CCCCCC2)C1c1cccc(Oc2ccccc2)c1)NCc1ccccc1` (stereo not drawn) [TRG 2414-115] the same measures were 3.71 µM and 5.6 µM.
With `CC(C)Cc1ccc(C(C)CNC(CN)CCCCN2Cc3ccccc3C(CNC3CCCCCC3)C2c2cccc(Oc3ccccc3)c2)cc1` (stereo not drawn) [TRG 2414-116], in experiment [1], the half-maximal inhibitory concentration (IC50) was found to be 53.7 µM. The “MC-4 IC50” value in experiment [2] is on record as “no fit”.
Turning to `NCC(N)CCCCN1Cc2ccccc2C(CNC2CCCCC2)C1c1cccc(Oc2ccccc2)c1` (stereo not drawn) [TRG 2414-117], the IC50 in experiment [1] was 1.93 µM; in experiment [2] it was 1.27 µM.
In the case of `NCC(CCCCN1Cc2ccccc2C(CNC2CCCCC2)C1c1cccc(Oc2ccccc2)c1)NCc1ccccc1` (stereo not drawn) [TRG 2414-119], the IC50 in experiment [1] amounted to 5.01 µM; in experiment [2], 4.77 µM.
Turning to `CC(C)Cc1ccc(C(C)CNC(CN)CCCCN2Cc3ccccc3C(CNC3CCCCC3)C2c2cccc(Oc3ccccc3)c2)cc1` (stereo not drawn) [TRG 2414-120], the IC50 worked out at 25 µM in experiment [1] and 58.8 µM in experiment [2].
Taken in the same sequence, the figures for `NCC(N)CCCCN1Cc2ccccc2C(CNCc2ccccc2C(F)(F)F)C1c1ccc(Oc2ccccc2)cc1` (stereo not drawn) [TRG 2414-121] were 8.13 µM and 27.8 µM.
Consider `NCC(CCCCN1Cc2ccccc2C(CNCc2ccccc2C(F)(F)F)C1c1ccc(Oc2ccccc2)cc1)NCCc1ccccc1` (stereo not drawn) [TRG 2414-122], for which the “MC-1 IC50” value in experiment [1] was “no fit”. Also, the IC50 in experiment [2] turned out to be 55.5 µM.
Turning to `NC[C@H](CCCCN1Cc2ccccc2C(CNCc2ccccc2C(F)(F)F)C1c1ccc(Oc2ccccc2)cc1)NCc1ccccc1` (stereo partly drawn) [TRG 2414-123], the IC50 in experiment [1] was 17.6 µM. Further, in experiment [2], the “MC-4 IC50” value was “no fit”.
Consider `CC(C)Cc1ccc(C(C)CNC(CN)CCCCN2Cc3ccccc3C(CNCc3ccccc3C(F)(F)F)C2c2ccc(Oc3ccccc3)cc2)cc1` (stereo not drawn) [TRG 2414-124], for which the “MC-1 IC50” value in experiment [1] is reported as “no fit”. Moreover, the “MC-4 IC50” value in experiment [2] is on record as “no fit”.
Regarding `CCOc1ccccc1CNCC1c2ccccc2CN(CCCCC(N)CN)C1c1ccc(Oc2ccccc2)cc1` (stereo not drawn) [TRG 2414-125], the IC50 in experiment [1] was determined as 0.7 µM; in experiment [2], 8.08 µM.
Consider `CCOc1ccccc1CNCC1c2ccccc2CN(CCCCC(CN)NCCc2ccccc2)C1c1ccc(Oc2ccccc2)cc1` (stereo not drawn) [TRG 2414-126], for which the results for the IC50 in experiment [1] and in experiment [2] were 6.43 µM and 18.7 µM, respectively.
As for `CCOc1ccccc1CNCC1c2ccccc2CN(CCCCC(CN)NCc2ccccc2)C1c1ccc(Oc2ccccc2)cc1` (stereo not drawn) [TRG 2414-127], the IC50 in experiment [1] came to 2.14 µM; in experiment [2], 26.8 µM.
Turning to `COc1ccccc1CCNCC1c2ccccc2CN(CCCCC(CN)NCCc2ccccc2)C1c1ccc(Oc2ccccc2)cc1` (stereo not drawn) [TRG 2414-130], the 50% inhibitory concentration (IC50) in experiment [1] is 4.63 µM; in experiment [2] it was 13.4 µM.
`COc1ccccc1CCNCC1c2ccccc2CN(CCCCC(CN)NCc2ccccc2)C1c1ccc(Oc2ccccc2)cc1` (stereo not drawn) [TRG 2414-131]: the IC50 in experiment [1] stood at 1.65 µM; in experiment [2] it was 14.6 µM.
Regarding `COc1ccccc1CCNCC1c2ccccc2CN(CCCCC(CN)NCC(C)c2ccc(CC(C)C)cc2)C1c1ccc(Oc2ccccc2)cc1` (stereo not drawn) [TRG 2414-132], the IC50 in experiment [1] is 27.4 µM. Also, the “MC-4 IC50” value in experiment [2] is listed as “no fit”.
Regarding `NCC(N)CCCCN1Cc2ccccc2C(CNCCc2cccc(Cl)c2)C1c1ccc(Oc2ccccc2)cc1` (stereo not drawn) [TRG 2414-133], the IC50 in experiment [1] worked out at 5.8 µM; in experiment [2], 15.9 µM.
For the compound `NCC(CCCCN1Cc2ccccc2C(CNCCc2cccc(Cl)c2)C1c1ccc(Oc2ccccc2)cc1)NCCc1ccccc1` (stereo not drawn) [TRG 2414-134], in experiment [1], the IC50 is 40.2 µM. Moreover, the “MC-4 IC50” value in experiment [2] was “no fit”.
In the case of `NCC(CCCCN1Cc2ccccc2C(CNCCc2cccc(Cl)c2)C1c1ccc(Oc2ccccc2)cc1)NCc1ccccc1` (stereo not drawn) [TRG 2414-135], the 50% inhibitory concentration (IC50) stood at 10.1 µM in experiment [1] and 46 µM in experiment [2].
As for `CC(C)Cc1ccc(C(C)CNC(CN)CCCCN2Cc3ccccc3C(CNCCc3cccc(Cl)c3)C2c2ccc(Oc3ccccc3)cc2)cc1` (stereo not drawn) [TRG 2414-136], in experiment [1], the “MC-1 IC50” value is given as “no fit”. Also, in experiment [2], the “MC-4 IC50” value is “no fit”.
Turning to `COc1cccc(CNCC2c3ccccc3CN(CCCCC(N)CN)C2c2ccc(Oc3ccccc3)cc2)c1` (stereo not drawn) [TRG 2414-137], the IC50 stood at 1.21 µM in experiment [1] and 5.26 µM in experiment [2].
Taken in the same sequence, the figures for `COc1cccc(CNCC2c3ccccc3CN(CCCCC(CN)NCCc3ccccc3)C2c2ccc(Oc3ccccc3)cc2)c1` (stereo not drawn) [TRG 2414-138] were 10.6 µM and 16.6 µM.
For `COc1cccc(CNCC2c3ccccc3CN(CCCCC(CN)NCc3ccccc3)C2c2ccc(Oc3ccccc3)cc2)c1` (stereo not drawn) [TRG 2414-139], the half-inhibitory concentration (IC50) in experiment [1] turned out to be 0.788 µM; in experiment [2], 12.6 µM.
Regarding `COc1cccc(CNCC2c3ccccc3CN(CCCCC(CN)NCC(C)c3ccc(CC(C)C)cc3)C2c2ccc(Oc3ccccc3)cc2)c1` (stereo not drawn) [TRG 2414-140], in experiment [1], the IC50 amounted to 37 µM. Moreover, the “MC-4 IC50” value in experiment [2] is given as “no fit”.
Regarding `COc1ccc(CNCC2c3ccccc3CN(CCCCC(N)CN)C2c2ccc(Oc3ccccc3)cc2)cc1` (stereo not drawn) [TRG 2414-141], the IC50 was found to be 2.04 µM in experiment [1] and 4.21 µM in experiment [2].
For the compound `COc1ccc(CNCC2c3ccccc3CN(CCCCC(CN)NCCc3ccccc3)C2c2ccc(Oc3ccccc3)cc2)cc1` (stereo not drawn) [TRG 2414-142], the results for the IC50 in experiment [1] and in experiment [2] were 4.38 µM and 11.3 µM, respectively.
On to `COc1ccc(CNCC2c3ccccc3CN(CCCCC(CN)NCc3ccccc3)C2c2ccc(Oc3ccccc3)cc2)cc1` (stereo not drawn) [TRG 2414-143], for which the IC50 in experiment [1] is 2.35 µM; in experiment [2] it was 14 µM.
In the case of `COc1ccc(CNCC2c3ccccc3CN(CCCCC(CN)NCC(C)c3ccc(CC(C)C)cc3)C2c2ccc(Oc3ccccc3)cc2)cc1` (stereo not drawn) [TRG 2414-144], the “MC-1 IC50” value in experiment [1] was “no fit”. Also, the “MC-4 IC50” value in experiment [2] was “no fit”.
Consider `COc1ccc(CCNCC2c3ccccc3CN(CCCCC(N)CN)C2c2ccc(Oc3ccccc3)cc2)cc1` (stereo not drawn) [TRG 2414-145], for which the half-inhibitory concentration (IC50) in experiment [1] worked out at 2.05 µM; in experiment [2] it was 3.47 µM.

The values are drawn from patent publication US6608082B1, “Treatment of erectile dysfunction using isoquinoline compound melanocortin receptor ligands” (Lion Bioscience AG, priority 1998, dated 2003).
